# Results filed as inconclusive are left out. Activity calls are given as the source filed them.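 Rule for the calls: active = valid dose-response fit whose half-maximal growth-inhibiting concentration is at or below a set limit above the top tested dose; inconclusive = flat fit with effect between 30 and 70%, or poor fit; inactive = half-maximal concentration above a set limit.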
# Experiment: antibacterial activity against Clostridioides difficile – 10-point retest, dose response (AID 1259246)
# Conditions: Clostridioides difficile clinical isolate growth, OD600, 24 h; at 60 µM (top of the series)
row,Structure (SMILES),"activity change, negative = inhibition"
1,N#C[C@@H]1[C@@H](c2ccc(C#Cc3ccccc3F)cc2)[C@H](CO)N1C(=O)C1CCCCC1,9.57% (inactive)
2,CO[C@@H]1CN(C)C(=O)c2ccc(NC(=O)c3ccc(-c4ccccc4)cc3)cc2OC[C@@H](C)NC[C@H]1C,25.2% (inactive)
3,CNC[C@@H]1Oc2ccc(N)cc2CC(=O)N([C@H](C)CO)C[C@H]1C,0.918% (inactive)
4,COc1ccccc1-c1ccc2c(c1)O[C@H](CN(C)Cc1ccc3c(c1)OCO3)[C@H](C)CN([C@H](C)CO)S2(=O)=O,-2.89% (inactive)

# Same assay, conditions: Clostridioides difficile clinical isolate growth, OD600, 24 h; at 68 µM (top of the series)
row,Structure (SMILES),"activity change, negative = inhibition"
1,O=C(C[C@H]1C[C@@H]2c3cc(NS(=O)(=O)c4ccc(F)cc4)ccc3O[C@@H]2[C@@H](CO)O1)NCc1ccc(Cl)cc1,8.4% (inactive)

# Same assay, conditions: Clostridioides difficile clinical isolate growth, OD600, 24 h; at 120 µM (top of the series)
row,Structure (SMILES),"activity change, negative = inhibition"
1,O=C(N[C@H]1CC[C@H](CCNS(=O)(=O)c2ccc(Cl)cc2)O[C@H]1CO)c1cnccn1,-7.94% (inactive)
2,CO[C@@H]1CN(C)C(=O)c2cc(NC(=O)c3ccc(-c4ccccc4)cc3)ccc2OC[C@@H](C)NC[C@@H]1C,6.12% (inactive)
3,CO[C@@H]1CN(C)C(=O)c2cc(NC(=O)c3nc4ccccc4s3)ccc2OC[C@@H](C)N(Cc2ccncc2)C[C@@H]1C,14.6% (inactive)
4,C[C@@H]1CN([C@H](C)CO)C(=O)c2cccc(NC(=O)Nc3ccc(C(F)(F)F)cc3)c2O[C@@H]1CN(C)S(=O)(=O)c1ccc(Cl)cc1,46.7% (inactive)
5,COc1ccc(-c2ccc([C@H]3[C@H](C#N)N(C(=O)C4CCCC4)[C@H]3CO)cc2)cc1,5.91% (inactive)
6,CO[C@@H]1CN(C)C(=O)c2ccc(NC(=O)c3nc4ccccc4s3)cc2OC[C@@H](C)NC[C@H]1C,-7.73% (inactive)
7,CC(C)C#Cc1ccc2c(c1)O[C@H](CN(C)CC1CCOCC1)[C@H](C)CN([C@H](C)CO)S2(=O)=O,10.2% (inactive)
8,C[C@@H]1CN([C@@H](C)CO)C(=O)c2cc(NC(=O)Nc3cccc4ccccc34)ccc2O[C@@H](C)CCCCO[C@H]1CN(C)S(=O)(=O)c1ccc(F)cc1,34.1% (inactive)
9,C[C@H](CO)N1C[C@H](C)[C@H](CN(C)Cc2ccc(Oc3ccccc3)cc2)Oc2ccc(NC(=O)C3CC3)cc2CC1=O,12.9% (inactive)
10,C[C@@H]1CN([C@H](C)CO)C(=O)c2cc(NC(=O)Nc3cccc4ccccc34)ccc2O[C@@H](C)CCCCO[C@@H]1CN(C)S(=O)(=O)c1ccc(F)cc1,12% (inactive)
11,CC(C)CC#Cc1ccc2c(c1)O[C@H](CN(C)Cc1ccccc1F)[C@H](C)CN([C@@H](C)CO)S2(=O)=O,26.2% (inactive)
12,Cc1ccc(S(=O)(=O)N[C@@H]2CC[C@H](CCNS(=O)(=O)Cc3ccccc3)O[C@@H]2CO)cc1,-5.03% (inactive)
13,CC(C)NC(=O)Nc1ccc2c(c1)CC(=O)N([C@H](C)CO)C[C@@H](C)[C@@H](CN(C)Cc1ccc(-c3ccccc3)cc1)O2,20.5% (inactive)
14,COc1ccc(CN2C[C@H](C)[C@@H](OC)CN(C)C(=O)c3ccc(NC(=O)c4nc5ccccc5s4)cc3OC[C@@H]2C)cc1,9.23% (inactive)
15,C[C@@H]1CN([C@@H](C)CO)C(=O)c2cccc(NC(=O)Nc3ccc4c(c3)OCO4)c2O[C@@H]1CN(C)C(=O)Nc1cccc2ccccc12,6.09% (inactive)
16,C[C@@H]1CN([C@@H](C)CO)S(=O)(=O)c2ccc(/C=C/c3ccccc3)cc2O[C@H]1CN(C)C(=O)c1ccccc1,18.9% (inactive)
17,C[C@@H]1CN([C@H](C)CO)C(=O)c2cc(NS(=O)(=O)c3ccccc3)ccc2O[C@@H](C)CCCCO[C@H]1CN(C)S(=O)(=O)c1ccc(F)cc1,12.7% (inactive)
18,O=C(C[C@@H]1C[C@H]2c3cc(NC(=O)Nc4ccc(F)cc4)ccc3O[C@H]2[C@@H](CO)O1)NC1CCCCC1,-2.82% (inactive)
19,C[C@H]1CN([C@@H](C)CO)C(=O)c2cccc(NC(=O)Nc3ccc(C(F)(F)F)cc3)c2O[C@@H]1CN(C)Cc1ccc2c(c1)OCO2,34.1% (inactive)
20,O=C(C[C@@H]1C[C@@H]2c3cc(NC(=O)C4CCC4)ccc3O[C@@H]2[C@H](CO)O1)NCc1ccc(Cl)cc1,-2.36% (inactive)
21,O=C(C[C@@H]1C[C@@H]2c3cc(NC(=O)Nc4ccccc4)ccc3O[C@@H]2[C@@H](CO)O1)NC1CCCC1,2.79% (inactive)
22,COc1ccc(NC(=O)Nc2cccc3c2O[C@H](CN(C)Cc2ccc(Oc4ccccc4)cc2)[C@@H](C)CN([C@@H](C)CO)C3=O)cc1,19.2% (inactive)
23,C[C@@H]1CN([C@H](C)CO)C(=O)c2cccc(NC(=O)Nc3ccccc3)c2O[C@@H]1CN(C)Cc1ccc(Oc2ccccc2)cc1,32.9% (inactive)

row,Structure (SMILES),"activity change, negative = inhibition"
1,C[C@H]1CN([C@@H](C)CO)C(=O)c2cccc(NC(=O)Nc3ccccc3)c2O[C@H]1CN(C)Cc1ccc(Oc2ccccc2)cc1,24.3% (inactive)
2,COc1ccc(S(=O)(=O)Nc2cccc3c2O[C@@H](CN(C)S(=O)(=O)c2c(C)noc2C)[C@H](C)CN([C@H](C)CO)C3=O)cc1,-3.81% (inactive)
3,CNC[C@@H]1Oc2ccc(NC(=O)CCCN(C)C)cc2CC(=O)N([C@@H](C)CO)C[C@H]1C,-5.36% (inactive)
4,Cc1ccc(-c2ccc3c(c2)O[C@H](CN(C)Cc2ccncc2)[C@@H](C)CN([C@H](C)CO)S3(=O)=O)cc1,22.9% (inactive)
5,COc1ccc(NC(=O)Nc2cccc3c2O[C@@H](CN(C)Cc2ccc(Oc4ccccc4)cc2)[C@H](C)CN([C@@H](C)CO)C3=O)cc1,18.2% (inactive)
6,C[C@@H]1CN([C@@H](C)CO)C(=O)Cc2cc(NC(=O)C3CCCCC3)ccc2O[C@@H]1CN(C)Cc1ccc(-c2ccccc2)cc1,19% (inactive)
7,COc1ccccc1CNC(=O)C[C@@H]1C[C@@H]2c3cc(NC(=O)NC4CCCC4)ccc3O[C@@H]2[C@@H](CO)O1,2.23% (inactive)
8,C[C@H](CO)N1C[C@H](C)[C@H](CN(C)Cc2ccc(Oc3ccccc3)cc2)Oc2c(NC(=O)Nc3ccccc3)cccc2C1=O,10.9% (inactive)
9,C[C@H](CO)N1C[C@H](C)[C@@H](CN(C)Cc2ccc(-c3ccccc3)cc2)Oc2c(NC(=O)Nc3ccc4c(c3)OCO4)cccc2C1=O,2.74% (inactive)
10,CC(C)CC#Cc1ccc2c(c1)O[C@H](CN(C)Cc1ccc(F)cc1)[C@H](C)CN([C@@H](C)CO)S2(=O)=O,34.5% (inactive)
11,C[C@@H]1CN([C@H](C)CO)S(=O)(=O)c2ccc(C3=CCCCC3)cc2O[C@H]1CN(C)Cc1ccccc1,12.5% (inactive)
12,C[C@@H]1CN([C@H](C)CO)S(=O)(=O)c2ccc(/C=C/c3ccccc3)cc2O[C@H]1CN(C)C(=O)c1ccncc1,17.1% (inactive)
13,COc1ccc(CNC(=O)C[C@H]2C[C@@H]3c4cc(NC(=O)NC5CCCC5)ccc4O[C@@H]3[C@@H](CO)O2)cc1,6.58% (inactive)
14,O=C(C[C@H]1C[C@@H]2c3cc(NC(=O)C4CCC4)ccc3O[C@@H]2[C@@H](CO)O1)NCc1ccc(Cl)cc1,-11.8% (inactive)
15,C[C@H]1CN([C@@H](C)CO)C(=O)c2cccc(NC(=O)Nc3ccc(C(F)(F)F)cc3)c2O[C@@H]1CN(C)C(=O)NC1CCCCC1,19.5% (inactive)
16,C[C@H]1CN([C@@H](C)CO)C(=O)c2cccc(NC(=O)Nc3ccc4c(c3)OCO4)c2O[C@@H]1CN(C)Cc1ccc(-c2ccccc2)cc1,2.11% (inactive)
17,C[C@H](CO)N1C[C@H](C)[C@@H](CN(C)Cc2cccnc2)Oc2cc(C#CC3CCCCC3)ccc2S1(=O)=O,27.1% (inactive)
18,COc1ccc(-c2ccc([C@H]3[C@H](C#N)N(C(=O)c4cccc(F)c4)[C@H]3CO)cc2)cc1,21.7% (inactive)
19,C[C@@H]1CN([C@@H](C)CO)C(=O)c2cccc(NC(=O)Nc3ccccc3)c2O[C@H]1CN(C)Cc1ccc(Oc2ccccc2)cc1,26.1% (inactive)
20,C[C@@H]1CCCCO[C@@H](CN(C)S(=O)(=O)c2ccc(F)cc2)[C@H](C)CN([C@H](C)CO)C(=O)c2cc(NC(=O)Nc3cccc4ccccc34)ccc2O1,34.2% (inactive)
21,CC(C)CC#Cc1ccc2c(c1)O[C@@H](CN(C)CC1CCOCC1)[C@H](C)CN([C@@H](C)CO)S2(=O)=O,13.6% (inactive)
22,COc1ccccc1-c1ccc2c(c1)O[C@H](CN(C)Cc1ccc3c(c1)OCO3)[C@H](C)CN([C@@H](C)CO)S2(=O)=O,31.6% (inactive)

# Same assay, conditions: Clostridioides difficile clinical isolate growth, OD600, 24 h; at 135 µM (top of the series)
row,Structure (SMILES),"activity change, negative = inhibition"
1,CO[C@@H]1CN(C)C(=O)c2cc(NC(=O)c3ccc(Oc4ccccc4)cc3)ccc2OC[C@H](C)NC[C@H]1C,24.9% (inactive)
2,CO[C@H]1CN(C)C(=O)c2cc(NC(=O)c3ccccc3)ccc2OC[C@H](C)NC[C@H]1C,-3.19% (inactive)
3,COc1ccc(NC(=O)N(C)C[C@@H]2Oc3ccc(NC(=O)CCCN(C)C)cc3CC(=O)N([C@H](C)CO)C[C@H]2C)cc1,1.15% (inactive)
4,CO[C@H]1CN(C)C(=O)c2cc(NC(=O)c3nc4ccccc4s3)ccc2OC[C@H](C)NC[C@H]1C,-0.247% (inactive)
5,CNC[C@H]1Oc2c(NC(=O)Nc3ccc(F)cc3)cccc2C(=O)N([C@H](C)CO)C[C@@H]1C,0.222% (inactive)
6,C[C@H]1CN([C@@H](C)CO)C(=O)Cc2cc(NC(=O)CCCN(C)C)ccc2O[C@H]1CN(C)Cc1ccc(Oc2ccccc2)cc1,10.5% (inactive)
7,O=C(C[C@@H]1C[C@@H]2c3cc(NS(=O)(=O)c4ccc(F)cc4)ccc3O[C@@H]2[C@@H](CO)O1)NCc1ccc(-c2ccccc2)cc1,18.3% (inactive)
8,COc1ccc(CN(C)C[C@H]2Oc3ccc(NC(=O)C4CC4)cc3CC(=O)N([C@H](C)CO)C[C@H]2C)cc1,0.998% (inactive)

# Source: PubChem BioAssay AID1259246 (Broad Institute, 2017)
